Assay results reported in patent US20230248665A1, “COMPOSITION COMPRISING DIMETHYLCHALCONE DERIVATIVE FOR PREVENTION OR TREATMENT OF METABOLIC DISEASE” (SEOUL NATIONAL UNIVERSITY R & DB FOUNDATION, priority 2020, published 2023).

Key:
Assay type in all cases: cell-based
[1] = system: rat aortic smooth muscle cells; test: PDGF-induced migration of vascular smooth muscle cells; settings: 1 µM with 10 ng/mL PDGF; FIG. 4
Description: Proliferation and migration of vascular smooth muscle cells are known to be essential steps in the progression of vascular diseases such as restenosis and arteriosclerosis. Therefore, in order to confirm the effect of the DMC derivatives of Example 1 on the migration of rat aortic smooth muscle cells, smooth muscle cells were treated with 10 ng/mL platelet-derived growth factor (PDGF) and 1 µM DMC derivative and cultured. Then, the degree of cell migration was measured.

AMPK = AMPK activity, western blotting of phosphorylated AMPK in C2C12 myotubes; settings: FIG. 2
From the text: AMP-activated protein kinase (AMPK) is a member of serine/threonine kinases, and is an enzyme known as an energy sensor which senses the intracellular energy state. Moreover, the activation of AMPK is known to show the effect of increasing glucose transport and promoting fatty acid oxidation in skeletal muscle, and to […] the synthesis of cholesterol and triglycerides, decrease lipogenesis, and increase fatty acid oxidation, and ketogenesis, and the like in the liver. Further, the activation of AMPK is known to reduce adipogenesis in adipose tissue and increase insulin secretion in pancreatic beta cells, thereby being able to be applied to the treatment of various metabolic diseases. Therefore, western blotting was performed in order to confirm the effect of the DMC derivatives of Example 1 on AMPK activity. More specifically, the C2C12 myoblasts were primarily cultured in DMEM supplemented with 10% fetal bovine serum, and then cultured in DMEM supplemented with 2% horse serum for 5 days to differentiate into myotubes. Then, the differentiated myotubes were treated with 10 µM DMC derivative and cultured for 24 hours, and then cells were collected, and disrupted using an ultrasonic disperser to obtain proteins. Next, western blotting was performed using a pAMPK antibody (Cell Signaling Technology) and an AMPK antibody (Cell Signaling Technology) to measure the amount of phosphorylated AMPK. 1 mM AICAR was used as a positive control, and 20 µg of protein was used for each sample in western blotting.

[2] = system: human kidney proximal tubule epithelial cell (HK-2) cell line; test: Antioxidant effect, intracellular reactive oxygen species (DCF-DA) in HK-2 kidney cells after H2O2; settings: 1 µM for 18 hours, then 500 µM H2O2 for 6 hours, FIG. 6
Description: First, the antioxidant effect was checked using kidney cells. More specifically, a human kidney proximal tubule epithelial cell (HK-2) cell line was treated with 1 µM DMC derivative and cultured for 18 hours. Then, 500 µM H2O2 was added to the culture medium and the culture medium was incubated for 6 hours. Thereafter, the amount of intracellular reactive oxygen species (iROS) was measured using dichlorohydro-fluorescein diacetate (DCF-DA).

COCOc1ccc(/C=C/C(=O)c2c(O)c(C)c(OCOC)c(C)c2OC)cc1 [Chemical Formula 28, 1-(2′-hydroxy-4′-(methoxymethoxy)-6′-methoxy-3′,5′-dimethylphenyl)-3-(4-methoxymethoxyphenyl)-2-propen-1-one]
migration of vascular smooth muscle cells [1]: similarly or more effectively suppressed cell migration by PDGF than AICAR and Rosi, which were used as positive controls, and DMC | activity of AMPK (phosphorylated AMPK) (AMPK; 10 µM, 24 hours): increased the activity of AMPK similarly to or more effectively than the positive controls

COc1c(C)c(OC)c(C(=O)/C=C/c2ccc(F)cc2)c(OC)c1C [Chemical Formula 16, 1-(3′,5′-dimethyl-2′,4′,6′-trimethoxyphenyl)-3-(4-fluorophenyl)-2-propen-1-one]
migration of vascular smooth muscle cells [1]: similarly or more effectively suppressed cell migration by PDGF than AICAR and Rosi, which were used as positive controls, and DMC | amount of intracellular reactive oxygen species (ROS) [2]: effectively reduced ROS

COc1c(C)c(O)c(C)c(O)c1C(=O)/C=C/c1ccccc1F [Chemical Formula 31, 1-(2′,4′-dihydroxy-6′-methoxy-3′,5′-dimethylphenyl)-3-(2-fluorophenyl)-2-propen-1-one]
migration of vascular smooth muscle cells [1]: similarly or more effectively suppressed cell migration by PDGF than AICAR and Rosi, which were used as positive controls, and DMC | amount of intracellular reactive oxygen species (ROS) [2]: effectively reduced ROS | activity of AMPK (phosphorylated AMPK) (AMPK; 10 µM, 24 hours): increased the activity of AMPK similarly to or more effectively than the positive controls

COCOc1c(C)c(O)c(C(=O)/C=C/c2ccc(C(C)C)cc2)c(OC)c1C [Chemical Formula 27, 1-(2′-hydroxy-4′-(methoxymethoxy)-6′-methoxy-3′,5′-dimethylphenyl)-3-(4-isopropylphenyl)-2-propen-1-one]
migration of vascular smooth muscle cells [1]: similarly or more effectively suppressed cell migration by PDGF than AICAR and Rosi, which were used as positive controls, and DMC | activity of AMPK (phosphorylated AMPK) (AMPK; 10 µM, 24 hours): increased the activity of AMPK similarly to or more effectively than the positive controls

COc1c(C)c(O)c(C)c(O)c1C(=O)/C=C/c1ccccc1Cl [Chemical Formula 37, 1-(2′,4′-dihydroxy-6′-methoxy-3′,5′-dimethylphenyl)-3-(2-chlorophenyl)-2-propen-1-one]
migration of vascular smooth muscle cells [1]: similarly or more effectively suppressed cell migration by PDGF than AICAR and Rosi, which were used as positive controls, and DMC | activity of AMPK (phosphorylated AMPK) (AMPK; 10 µM, 24 hours): increased the activity of AMPK similarly to or more effectively than the positive controls

COc1c(C)c(O)c(C)c(O)c1C(=O)/C=C/c1ccccc1 [DMC, 2′,4′-dihydroxy-6′-methoxy-3′,5′-dimethylchalcone, reference compound]
activity of AMPK (phosphorylated AMPK) (AMPK; 10 µM, 24 hours): increased the activity of AMPK

COc1ccc(/C=C/C(=O)c2c(O)c(C)c(O)c(C)c2OC)cc1 [Chemical Formula 5, 1-(2′,4′-dihydroxy-6′-methoxy-3′,5′-dimethylphenyl)-3-(4-methoxyphenyl)-2-propen-1-one]
activity of AMPK (phosphorylated AMPK) (AMPK; 10 µM, 24 hours): increased the activity of AMPK similarly to or more effectively than the positive controls

COCOc1c(C)c(O)c(C(=O)/C=C/c2ccccc2F)c(OC)c1C [Chemical Formula 34, 1-(2′-hydroxy-4′-(methoxymethoxy)-6′-methoxy-3′,5′-dimethylphenyl)-3-(2-fluorophenyl)-2-propen-1-one]
migration of vascular smooth muscle cells [1]: similarly or more effectively suppressed cell migration by PDGF than AICAR and Rosi, which were used as positive controls, and DMC

COc1c(C)c(OC)c(C(=O)/C=C/c2ccc(C(C)C)cc2)c(OC)c1C [Chemical Formula 19, 1-(3′,5′-dimethyl-2′,4′,6′-trimethoxyphenyl)-3-(4-isopropylphenyl)-2-propen-1-one]
migration of vascular smooth muscle cells [1]: similarly or more effectively suppressed cell migration by PDGF than AICAR and Rosi, which were used as positive controls, and DMC | activity of AMPK (phosphorylated AMPK) (AMPK; 10 µM, 24 hours): increased the activity of AMPK similarly to or more effectively than the positive controls

COc1c(C)c(O)c(C)c(O)c1C(=O)/C=C/c1ccc(C(C)C)cc1 [Chemical Formula 4, 1-(2′,4′-dihydroxy-6′-methoxy-3′,5′-dimethylphenyl)-3-(4-isopropylphenyl)-2-propen-1-one]
migration of vascular smooth muscle cells [1]: similarly or more effectively suppressed cell migration by PDGF than AICAR and Rosi, which were used as positive controls, and DMC | amount of intracellular reactive oxygen species (ROS) [2]: effectively reduced ROS

COCOc1c(C)c(O)c(C(=O)/C=C/c2ccc(OC)cc2)c(OC)c1C [Chemical Formula 29, 1-(2′-hydroxy-4′-(methoxymethoxy)-6′-methoxy-3′,5′-dimethylphenyl)-3-(4-methoxyphenyl)-2-propen-1-one]
migration of vascular smooth muscle cells [1]: similarly or more effectively suppressed cell migration by PDGF than AICAR and Rosi, which were used as positive controls, and DMC | activity of AMPK (phosphorylated AMPK) (AMPK; 10 µM, 24 hours): increased the activity of AMPK similarly to or more effectively than the positive controls

NC(=O)c1ncn([C@@H]2O[C@H](CO)[C@@H](O)[C@H]2O)c1N [AICAR, reference compound]
activity of AMPK (phosphorylated AMPK) (AMPK; positive control 1 mM AICAR): increased the activity of AMPK

COCOc1c(C)c(O)c(C(=O)/C=C/c2ccc(C)cc2)c(OC)c1C [Chemical Formula 26, 1-(2′-hydroxy-4′-(methoxymethoxy)-6′-methoxy-3′,5′-dimethylphenyl)-3-(4-tolyl)-2-propen-1-one]
migration of vascular smooth muscle cells [1]: similarly or more effectively suppressed cell migration by PDGF than AICAR and Rosi, which were used as positive controls, and DMC | activity of AMPK (phosphorylated AMPK) (AMPK; 10 µM, 24 hours): increased the activity of AMPK similarly to or more effectively than the positive controls

COc1c(C)c(OC)c(C(=O)/C=C/c2ccc(C)cc2)c(OC)c1C [Chemical Formula 18, 1-(3′,5′-dimethyl-2′,4′,6′-trimethoxyphenyl)-3-(4-tolyl)-2-propen-1-one]
migration of vascular smooth muscle cells [1]: similarly or more effectively suppressed cell migration by PDGF than AICAR and Rosi, which were used as positive controls, and DMC

COCOc1ccc(/C=C/C(=O)c2c(OC)c(C)c(OC)c(C)c2OC)cc1 [Chemical Formula 20, 1-(3′,5′-dimethyl-2′,4′,6′-trimethoxyphenyl)-3-(4-methoxymethoxyphenyl)-2-propen-1-one]
migration of vascular smooth muscle cells [1]: similarly or more effectively suppressed cell migration by PDGF than AICAR and Rosi, which were used as positive controls, and DMC | amount of intracellular reactive oxygen species (ROS) [2]: effectively reduced ROS | activity of AMPK (phosphorylated AMPK) (AMPK; 10 µM, 24 hours): increased the activity of AMPK similarly to or more effectively than the positive controls

COc1c(C)c(O)c(C)c(O)c1C(=O)/C=C/c1cccc(F)c1 [Chemical Formula 32, 1-(2′,4′-dihydroxy-6′-methoxy-3′,5′-dimethylphenyl)-3-(3-fluorophenyl)-2-propen-1-one]
activity of AMPK (phosphorylated AMPK) (AMPK; 10 µM, 24 hours): increased the activity of AMPK similarly to or more effectively than the positive controls

COc1c(C)c(OC)c(C(=O)/C=C/c2ccccc2)c(OC)c1C [Chemical Formula 17, 1-(3′,5′-dimethyl-2′,4′,6′-trimethoxyphenyl)-3-phenyl-2-propen-1-one]
migration of vascular smooth muscle cells [1]: similarly or more effectively suppressed cell migration by PDGF than AICAR and Rosi, which were used as positive controls, and DMC | amount of intracellular reactive oxygen species (ROS) [2]: effectively reduced ROS

COc1c(C)c(OC)c(C(=O)/C=C/c2ccc(O)cc2)c(OC)c1C [Chemical Formula 22, 1-(3′,5′-dimethyl-2′,4′,6′-trimethoxyphenyl)-3-(4-hydroxyphenyl)-2-propen-1-one]
migration of vascular smooth muscle cells [1]: similarly or more effectively suppressed cell migration by PDGF than AICAR and Rosi, which were used as positive controls, and DMC | activity of AMPK (phosphorylated AMPK) (AMPK; 10 µM, 24 hours): increased the activity of AMPK similarly to or more effectively than the positive controls

COc1ccc(/C=C/C(=O)c2c(OC)c(C)c(OC)c(C)c2OC)cc1 [Chemical Formula 21, 1-(3′,5′-dimethyl-2′,4′,6′-trimethoxyphenyl)-3-(4-methoxyphenyl)-2-propen-1-one]
migration of vascular smooth muscle cells [1]: similarly or more effectively suppressed cell migration by PDGF than AICAR and Rosi, which were used as positive controls, and DMC | activity of AMPK (phosphorylated AMPK) (AMPK; 10 µM, 24 hours): increased the activity of AMPK similarly to or more effectively than the positive controls
